Assay results from patent US9695156B2, “Compounds for the treatment and prevention of infections” (Brown University, priority 2012, dated 2017).

What was measured:
BKPyV [1] = assay: VP2 release assay; assay type: cell-based, BK polyomavirus; conditions: 100 μM Retro-2, 500 ng/mL brefeldin A; MOI 10, 10 hpi
JCPyV [2] = assay: Time course (time of addition) experiment, SVG-A cells; assay type: cell-based, JC polyomavirus
SV40 [3] = assay: VP2 release assay; assay type: cell-based, simian virus 40; conditions: 100 μM Retro-2, 500 ng/mL brefeldin A; MOI 10, 10 hpi
JCPyV [4] = assay: ER trafficking assay, colocalization with PDI; assay type: cell-based, JC polyomavirus
BKPyV [5] = assay: Dose dependent inhibition of infection, flow cytometric scoring, Vero cells; assay type: cell-based, BK polyomavirus; conditions: Betapolyomavirus hominis, VP1 at 72 h, compared to vehicle control, read-out: calculated EC50, decrease in percentage of cells expressing VP1
JCPyV [6] = assay: Dose dependent inhibition of infection, flow cytometric scoring, SVG-A cells; assay type: cell-based, JC polyomavirus; conditions: for inhibition of JCPyV infection (FIG. 8C): 100 μM, SVG-A cells pre-incubated, flow cytometry
BKPyV [7] = assay: ER trafficking assay, colocalization with PDI; assay type: cell-based, BK polyomavirus
SV40 [8] = assay: ER trafficking assay, colocalization with PDI; assay type: cell-based, simian virus 40
BKPyV [9] = assay: Multicycle growth assay and reinfection assay in established infection, Vero cells; assay type: cell-based, BK polyomavirus
Stx2 = conditions: cited from earlier work
SVG-A or Vero cells = assay type: cell-based
Procedure: The viability of SVG-A or Vero cells were first tested after treatment with Retro-2^cycl. Cells were treated with Retro-2^cycl at the indicated concentrations for 72 h before viability was assessed using the CellTiter 96 AQueous One Solution Cell Proliferation Assay. As a control, cells were treated with either 0.04% DMSO or with 10% SDS. Error bars denote standard deviation.

BKPyV [10] = assay: Endocytosis assay, trypan blue quenching, confocal microscopy; assay type: cell-based, BK polyomavirus; conditions: 100 μM Retro-2, 100 μM nystatin; fixed at 2 h
BKPyV [11] = assay: Binding of labeled virus to Vero cells, flow cytometry; assay type: cell-based, BK polyomavirus; conditions: 100 μM, 1 h pretreatment
Ad5-GFP pseudovirus = assay type: cell-based, Adenovirus Type 5; conditions: Vero cells pre-treated, GFP positive cells by flow cytometry
JCPyV [12] = assay: Endocytosis assay, trypan blue quenching, confocal microscopy; assay type: cell-based, JC polyomavirus; conditions: 100 μM Retro-2, 30 μM chloropromazine; fixed at 2 h
JCPyV [13] = assay: VP2 release assay; assay type: cell-based, JC polyomavirus; conditions: 100 μM Retro-2, 500 ng/mL brefeldin A; MOI 10, 10 hpi
CTxB [14] = assay type: cell-based
SV40 [15] = assay: Time course (time of addition) experiment, Vero cells; assay type: cell-based, simian virus 40
SV40 [16] = assay: Endocytosis assay, trypan blue quenching, confocal microscopy; assay type: cell-based, simian virus 40; conditions: 100 μM Retro-2, 100 μM nystatin; fixed at 2 h
SV40 [17] = assay: Dose dependent inhibition of infection, flow cytometric scoring, Vero cells; assay type: cell-based, simian virus 40; conditions: Betapolyomavirus macacae, VP1 at 72 h, compared to vehicle control, read-out: calculated EC50, decrease in percentage of cells expressing VP1
CTxB [18] = assay type: cell-based; remark: listed apart in the source
JCPyV [19] = assay: Multicycle growth assay and reinfection assay in established infection, SVG-A cells; assay type: cell-based, JC polyomavirus
SV40 [20] = assay: Multicycle growth assay and reinfection assay in established infection, Vero cells; assay type: cell-based, simian virus 40
BKPyV [21] = assay: Time course (time of addition) experiment, Vero cells; assay type: cell-based, BK polyomavirus
SV40 [22] = assay: Binding of labeled virus to Vero cells, flow cytometry; assay type: cell-based, simian virus 40; conditions: 100 μM, 1 h pretreatment
[23] = Conversion (cyclization) of Retro-2 in solution; assay type: physicochemical
cells = conditions: cited from earlier work
[24] = 100 μM, re-fed daily, 12 days post infection, MOI 0.01

Cc1ccc(C2Nc3ccccc3C(=O)N2c2ccccc2)s1 (stereo not drawn) [Retro-2^cycl, 2-(5-methylthiophen-2-yl)-3-phenyl-2,3-dihydroquinazolin-4(1H)-one]
cells exposing VP2 (BKPyV [1]): significant reduction of cells exposing VP2 | infectivity regained when compound is added late (JCPyV [2]): greater than 80% | time of addition after which most of the inhibitory effect is lost (JCPyV [2]): > 14 h | time of addition at which infectivity is still significantly reduced (JCPyV [2]): up to 4 hours post infection (hpi) | cells exposing VP2 (SV40 [3]): significant reduction of cells exposing VP2 | co-localization of JCV-633 with Rab5 endosomes (JCPyV [4]): increases co-localization | colocalization with the ER protein PDI (JCPyV [4]): significantly reduces colocalization | EC50 (BKPyV [5]): 61.2 µM | EC50 (JCPyV [6]; JC polyomavirus, SVG-A cells, VP1 at 72 h, compared to vehicle control, read-out: calculated EC50, decrease in percentage of cells expressing VP1): 28.4 µM | colocalization with the ER protein PDI (BKPyV [7]): significantly reduces colocalization | colocalization with the ER protein PDI (SV40 [8]): reduced, although this reduction was not significant | inhibition of viral spread (percentage of infected cells vs vehicle control) (BKPyV [9]; [24]): 89% | infectious virions in tissue culture supernatant (reinfection of naive cells) (BKPyV [9]; cultures treated with 100 μM): significantly less infectious virions | protection of cells from toxin (Stx2): able to protect cells | cell viability at effective doses (SVG-A or Vero cells): do not negatively affect cell viability | inhibition of endocytosis (BKPyV [10]): does not inhibit endocytosis | binding to cells compared to vehicle control (BKPyV [11]): slight decreases | inhibition of Ad5-GFP transduction (Ad5-GFP pseudovirus): did not inhibit transduction | inhibition of endocytosis (JCPyV [12]): does not inhibit endocytosis | cells exposing VP2 (JCPyV [13]): significant reduction of cells exposing VP2 | colocalization with the ER protein PDI (CTxB [14]): significantly reduces colocalization | infectivity regained when compound is added late (SV40 [15]): greater than 80% | time of addition after which most of the inhibitory effect is lost (SV40 [15]): > 12 h | time of addition at which infectivity is still significantly reduced (SV40 [15]): up to 4 hours post infection (hpi) | inhibition of endocytosis (SV40 [16]): does not inhibit endocytosis | EC50 (SV40 [17]): 58.6 µM | inhibition of endocytosis (CTxB [18]): does not inhibit endocytosis | inhibition of viral spread (percentage of infected cells vs vehicle control) (JCPyV [19]; [24]): 90.5% | infectious virions in tissue culture supernatant (reinfection of naive cells) (JCPyV [19]; cultures treated with 100 μM): significantly less infectious virions | cytopathic effect in JCV infected SVG-A cells (JCPyV [19]; phase contrast microscopy at 15 days post infection, vs DMSO): reduces cytopathic effect | inhibition of viral spread (percentage of infected cells vs vehicle control) (SV40 [20]; [24]): 84% | infectious virions in tissue culture supernatant (reinfection of naive cells) (SV40 [20]; cultures treated with 100 μM): significantly less infectious virions | infectivity regained when compound is added late (BKPyV [21]): greater than 80% | time of addition after which most of the inhibitory effect is lost (BKPyV [21]): > 12 h | time of addition at which infectivity is still significantly reduced (BKPyV [21]): up to 4 hours post infection (hpi) | binding to cells compared to vehicle control (SV40 [22]): slight decreases

CN(C)CCCN1c2ccccc2Sc2ccc(Cl)cc21 [chloropromazine, reference compound]
inhibition of endocytosis (JCPyV [12]): inhibits endocytosis

Cc1ccc(CNc2ccccc2C(=O)Nc2ccccc2)s1 [Retro-2^red]
inhibition of JCPyV infection (FIG. 8C) (JCPyV [6]): significantly less active

CCc1ccc(C2Nc3ccccc3C(=O)N2c2ccccc2)s1 (stereo not drawn) [BU62382A4]
potency against polyomavirus infectivity relative to Retro-2^cycl (JCPyV [6]; preliminary SAR, ethyl instead of methyl at position 5 of thiophenyl ring): does not negatively impact potency

Cc1ccc(/C=N/c2ccccc2C(=O)Nc2ccccc2)s1 [Retro-2, 2-(((5-methylthiophen-2-yl)methylene)amino)-N-phenylbenzamide]
conversion to Retro-2^cycl in solution [23]: rapidly converts

C[C@@H]1[C@H](O)[C@@H](C)/C=C/C=C/CC/C=C/C=C/C=C/C=C/C(O[C@H]2O[C@H](C)[C@@H](O)[C@H](N)[C@@H]2O)CC2O[C@](O)(CC(O)C(O)CCC(O)CC(O)CC(O)CC(=O)O[C@H]1C)CC(O)C2C(=O)O (stereo partly drawn) [nystatin, reference compound]
inhibition of endocytosis (BKPyV [10]): inhibits endocytosis | inhibition of endocytosis (SV40 [16]): inhibits endocytosis | inhibition of endocytosis (CTxB [18]): inhibits endocytosis

Cc1ccc(/C=N/c2cccc(C(=O)Nc3ccccc3)c2)s1 [Retro-2^meta]
colocalization with the ER protein PDI (JCPyV [4]): significant colocalization | inhibition of JCPyV infection (FIG. 8C) (JCPyV [6]): significantly less active | colocalization with the ER protein PDI (BKPyV [7]): significant colocalization | colocalization with the ER protein PDI (SV40 [8]): significant colocalization | colocalization with the ER protein PDI (CTxB [14]): significant colocalization

C[C@H]1CCC/C=C/[C@@H]2C[C@H](O)C[C@H]2[C@H](O)/C=C/C(=O)O1 [brefeldin A, reference compound]
cells exposing VP2 (BKPyV [1]): significant reduction in the number of cells with VP2 exposed | cells exposing VP2 (SV40 [3]): significant reduction in the number of cells with VP2 exposed | colocalization with the ER protein PDI (JCPyV [4]): significantly reduces colocalization | reduction in infectivity (JCPyV [6]; 20 ng/mL, SVG-A cells, positive control): 96% | colocalization with the ER protein PDI (BKPyV [7]): significantly reduces colocalization | colocalization with the ER protein PDI (SV40 [8]): reduced, although this reduction was not significant | cytotoxicity to cells (cells): highly cytotoxic | cells exposing VP2 (JCPyV [13]): significant reduction in the number of cells with VP2 exposed | colocalization with the ER protein PDI (CTxB [14]): significantly reduces colocalization
